Assays:
HT22 cells = test: Glutamate insult test in HT22 cells, MTT assay; type: cell-based, Mouse; details: for reduced HT22 cell death: 400 nM peptide; for reduced HT22 cell death / reduced cell death: 6 mM glutamate, 24 h, MTT
Method: The group with 0 nM RvTAT-PKD-S205 was as a control. Cell Death rate (%)=100%×(Control OD−treatment OD)/Control OD. Data were shown as mean t SEM, (n=3), *p<0.05, **p<0.01, One-Way ANOVA followed by Multiple Comparisons versus the group with 0 nM RvTAT-PKD-S205 (Bonferroni t-test).
After 24 hours following glutamate exposure, cell cytotoxicity was determined by the MTT assay. HT22 cells, without the presence of the test agents in culture medium, were exposed separately 42 of 59 to 6 mM Glutamate salt as a control. Cell Death (%)=100%×(Control OD−treatment OD)/Control OD. Data were shown as mean±SEM, (n=3) * p<0.05, **p<0.01, One-Way ANOVA followed by Multiple Comparisons versus Glutamate Control Group (Bonferroni t-test).
The cells of HT-22 Mouse Hippocampal neuronal cell line were cultured and maintained in DMEM 10% fetal bovine serum, 100 U/ml penicillin and 100 μg/ml streptomycin. Cells were maintained at a temperature of 37° C. in 5% CO2/95% air. During agent's treatments and experimentation, HT-22 cells were seeded in 96-well plates by 6×10^3 cells/well and cultured at 37° C. in a CO2 incubator for 24 h. Afterwards, For neuroprotection assays, HT22 cells were exposure to 6 mM glutamate by removing media and adding Neurobasal Medium with present of 2% B27 (B27 (B-27™ Plus Supplement (50×)) and various concentrations of test agents for further 24 hours at 37° C. in the CO2 incubator. Cell viability was assessed by MTT assay.
Cell viability was quantitatively measured by 3-[4,5-dimethylthiazol-2-yl]-2,5-diphenyltetrazolium bromide (MTT) assay.
Water-soluble yellow dye MTT reagent (final concentration 0.5 mg/ml) was added to each well and incubated at 37° C. After 4 hours, the incubate medium was removed and 100 μl of Dimethyl Sulfoxide (DMSO) was added. After 30 min extraction at room temperature, the absorbance of the formazan solution is determined spectrophotometrically at 570 nm. MTT absorbance data were converted to reflect proportional cell viability relative to both the untreated and treated controls, wherein the untreated control was considered as 100% viability.

[1] = test system: rat primary cortical neurons; test: Oxygen-glucose deprivation (OGD)/reperfusion in primary cortical neuronal cultures, MTT assay; type: cell-based, Sprague Dawley rat
Method: (§1) To induce OGD, EBSS containing 20 mM pH7.2 Sodium dithionite (Na2S2O4) solution with test agents were transiently exposed for 1.5 hrs, afterwards, for reperfusion, OGD culture medium was replaced with normal neurobasal media. The culture cells were further incubated for 20 hours, and cell cytotoxicity was assessed using the MTT assay. Non-OGD treated cell culture was as a control taken as 100% viability, Cell Death rate (%)=100%×(Control OD−treatment OD)/Control OD. Data were shown as mean±SEM, (n=3) * p<0.05, One-Way ANOVA followed by Multiple Comparisons versus OGD CTRL Group (Bonferroni t-test).
as §1, with “peptides” for “agents”, “show” for “shown”, “(n=3)) ** p<0.01, *** p<0.005;” for “(n=3) * p<0.05,”
Primary cultures of mixed cortical cell cultures containing both neurons and glia were prepared from embryonic day 15-18 Sprague Dawley rat as described previously [Wenxiang Fan, 50 of 59 Xiang Li, Liangliang Huang, Shucheng He, Zhicheng Xie, Yuxin Fu, Weirong Fang, Yunman Li S-oxiracetam ameliorates ischemic stroke induced neuronal apoptosis through up-regulating α7nAChR and PI3K/Akt/GSK3β signal pathway in rats Neurochemistry International Volume 115, May 2018, Pages 50-60 https://doi.org/10.1016/j.Neuint.2018.01.008]. […]
Oxygen glucose deprivation were performed according to a previously method [J. Huang, N. D. Kodithuwakku, W. He. […] Finally, Cell viability was determined by MTT assay (same as 1.2) […]

[2] = test system: transient middle cerebral artery occlusion/reperfusion (MCAO/R) stroke model; test: Transient MCAO/R stroke model, infarct volume by TTC staining; type: in vivo, Sprague-Dawley rats; details: 3.5 mg/kg single i.v. bolus 4.5 h after ischemia onset; 90 min MCAO; TTC about 24 h; vs saline controls
[3] = test system: transient bilateral common carotid artery occlusion (tBCCAO/R) global cerebral ischemia model; test: Y-maze passive avoidance after tBCCAO/R; type: in vivo, C57BL/6 mice; details: 7 mg/kg i.v. 3 h after tBCCAO; tested 24 h after tBCCAO/R; vs untreated group
Method: (§2) C57BL/6 mice were subjected to two times 20 minutes bilateral common carotid arteries occlusion followed by reperfusion (tBCCAO/R) and treated with 7 mg/2 ml/kg RvTAT-PKD-S205 or some volume Saline via tail vein administered after 3 hours of the tBCCAO. After 24 hours of reperfusion, the ischemic mice were estimated by the Y maze Passive Avoidance task, as well as the MDA content in hippocampus and brain water content. […] FIG. 6C show the MDA content in hippocampus collected from Ischemic or sham mice after 24 hours of reperfusion subject to MDA ELISA assay. […] Data were shown as mean±SEM, (n=11 in each group), *p<0.05, **p<0.01 compared to Saline control group using Student t test. Animal treatments were randomized, and all procedures were performed blinded to treatment. […]
The day before surgery, the researchers train the mice to avoid electric shocks caused by light sources, which can minimize the effects of odor. […] Learning and memory skill was quantified by Y maze passive avoidance task 24 hours after tBCCAO/R modeling (FIG. 6A).
After 24 hrs BCCAO/R mice were acclimatized to the testing room before conducting the Y-maze and allowed to familiarize themselves with the maze. […] A current stimulation of pre-determined intensity (0.05-0.8 mA) will be administered. […] The number to escape to the safe zone was recorded; any escapes to non-safe zones were regarded as erroneous. […]

[4] = test system: transient middle cerebral artery occlusion/reperfusion (MCAO/R) stroke model; test: Rotarod motor performance after MCAO/R; type: in vivo, Sprague-Dawley rats; details: 3.5 mg/kg i.v. 4.5 h after ischemia onset; for Holding time on rod increase: vs untreated control group
[5] = test system: transient bilateral common carotid artery occlusion (tBCCAO/R) global cerebral ischemia model; test: Brain edema (brain water content) after tBCCAO/R; type: in vivo, C57BL/6 mice; details: 7 mg/kg i.v. 3 h after tBCCAO; 24 h reperfusion; vs saline controls
Method: C57BL/6 mice were subjected to two times 20 minutes bilateral common carotid arteries occlusion followed by reperfusion (tBCCAO/R) and treated with 7 mg/2 ml/kg RvTAT-PKD-S205 or some volume Saline via tail vein administered after 3 hours of the tBCCAO. After 24 hours of reperfusion, the ischemic mice were estimated by the Y maze Passive Avoidance task, as well as the MDA content in hippocampus and brain water content. […] FIG. 6C show the MDA content in hippocampus collected from Ischemic or sham mice after 24 hours of reperfusion subject to MDA ELISA assay. […] Data were shown as mean±SEM, (n=11 in each group), *p<0.05, **p<0.01 compared to Saline control group using Student t test. Animal treatments were randomized, and all procedures were performed blinded to treatment.
Modeling: C57 […] male mice weighing 20-30 g (6-7 weeks old) were allowed free access to food and water and were housed under constant environmental conditions (a 12/12 h light/dark cycle). […]
Mice were assessed for brain edema by the dry/wet weight measurement after 24 hrs BCCAO/R. Wet weight was determined immediately after dissection of the brain, then the tissue was dried at 55° C. to a constant weight over 24 hours to determine the dry weight. The percentage of brain water content was calculated as (wet weight−dry weight)/wet weight*100.

[6] = test system: MDA content in hippocampus; test: Malondialdehyde (MDA) assay after tBCCAO/R; type: in vivo, C57BL/6 mice; details: 7 mg/kg i.v. 3 h after tBCCAO; 24 h reperfusion; vs saline
Method: as §2
MDA is one of the important products of lipid peroxidation and the extent of lipid oxidation was determined by measuring MDA levels. […] The supernatants were collected after the lysates were centrifuged at 3,500 r/min for 10 min at 4° C., and MDA content was determined using MDA TCA kit (Nanjing Jiancheng Bioengineering Institute, Nanjing, China) following the manufacturer's protocol. The results were evaluated from the standard curve and calculated as nM/mg of tissue.

RRRQRRKKRGKKRPQRRYSNVP [RvTAT-opMLC-S20]
reduced HT22 cell death (HT22 cells): ~25%
survival of neurons ([1]; OGD model): did not significantly increase

RRRQRRKKRGNLSRRLKVTGDL [RvTAT-BECN1-T199, Fusion peptide: RvTAT at N-terminus of BECN1-T199]
reduced HT22 cell death (HT22 cells): ~21%

RRRQRRKKRGRKPERRRLKTTRL [RvTAT-ZIPK-T299, Fusion peptide: RvTAT at N-terminus of ZIPK-T299]
reduced HT22 cell death (HT22 cells): about 33%
reducing cortical neuronal death ([1]; 1000 nM peptide added 30 min before OGD, 20 h reperfusion, MTT): 12%

RRRQRRKKRGSGVRRRRLSNVSL [RvTAT-PKD-S205, Fusion peptide: RvTAT cell penetrating peptide at N-terminus of PKD-S205]
reduced cell death (HT22 cells; 100 nM peptide): 11%
reduced cell death (HT22 cells; 200 nM peptide): 22%
reduced cell death (HT22 cells; 1600 nM peptide): 24%
most effective concentration (HT22 cells; glutamate induced apoptosis model): 400 nM
reduced the volume of total cerebral infarction [2]: approximately 60%
reducing neuronal death ([1]; 300 nM peptide added 30 min before OGD, 20 h reperfusion, MTT): 12%
increase in memory index (Y-maze passive avoidance) [3]: 30%
mean holding time, treated vs untreated ([4]; 3 days after tMCAO): no significant differences
Holding time on rod increase ([4]; 5 days after tMCAO): 70%
Holding time on rod increase ([4]; 7 days after tMCAO): 75%
brain water content reduced [5]: 8.5%
decrease in MDA level [6]: 55%

RRRQRRKKRGQIAKRRRLSSLRA [RvTAT-rSP6-S235, Fusion peptide: RvTAT at N-terminus of rSP6-S235]
reduced HT22 cell death (HT22 cells): about 29%
